# Experimental data published in article PMC8373216, “Development and Preclinical Evaluation of New Inhaled Lipoglycopeptides for the Treatment of Persistent Pulmonary Methicillin-Resistant Staphylococcus aureus Infections” (Antimicrobial Agents and Chemotherapy, 2021).
# Where two headings read alike, the source gives them in different places.
# Assays:
# [1] = system: MRSA ATCC BAA 1556 (USA300); test: In-house broth microdilution MIC screening; format: cell-based, Staphylococcus aureus; details: Staphylococcus aureus, read-out: MIC Value, MRSA ATCC BAA 1556
# MSSA ATCC 29213 = test: In-house broth microdilution MIC screening; format: cell-based; details: Staphylococcus aureus, read-out: MIC Value, MSSA ATCC 29213
# [2] = system: Staphylococcus epidermidis; test: Expanded panel broth microdilution MIC/MBC; format: cell-based; details: for MIC: Staphylococcus epidermidis
# [3] = system: Staphylococcus lugdunensis; test: Expanded panel broth microdilution MIC; format: cell-based
# Enterococcus faecalis = test: Expanded panel broth microdilution MIC/MBC; format: cell-based
# Enterococcus faecium = test: Expanded panel broth microdilution MIC/MBC; format: cell-based; details: for MIC: Enterococcus faecium
# Streptococcus pyogenes = test: Expanded panel broth microdilution MIC/MBC; format: cell-based
# Streptococcus agalactiae = test: Expanded panel broth microdilution MIC/MBC; format: cell-based
# [4] = system: Streptococcus dysgalactiae; test: Expanded panel broth microdilution MIC/MBC; format: cell-based; details: for MIC: Streptococcus dysgalactiae
# Streptococcus anginosus = test: Expanded panel broth microdilution MIC/MBC; format: cell-based; details: for MIC: Streptococcus anginosus
# [5] = system: Streptococcus constellatus; test: Expanded panel broth microdilution MIC; format: cell-based
# Streptococcus mitis = test: Expanded panel broth microdilution MIC/MBC; format: cell-based; details: for MIC: Streptococcus mitis
# Clostridioides difficile = test: Expanded panel broth microdilution MIC; format: cell-based
# Clostridium. perfringens = test: microbe, parasite or virus in culture; format: cell-based
# S. aureus = test: Expanded panel broth microdilution MIC/MBC; details: for MIC: Staphylococcus aureus
# [6] = system: MRSA ATCC BAA 1556 (USA300) biofilm; test: Static MRSA biofilm killing, plastic microtiter plate, MEM
structure (smiles),measurement,setting,value
"CCCCCCCCCCNCCN[C@@]1(C)C[C@H](O[C@H]2[C@H](Oc3c4cc5cc3Oc3ccc(cc3Cl)[C@@H](O)[C@@H](NC(=O)[C@@H](CC(C)C)NC)C(=O)N[C@@H](CC(N)=O)C(=O)N[C@H]5C(=O)N[C@H]3C(=O)N[C@H](C(=O)N[C@H](C(=O)O)c5cc(O)c(CNCP(=O)(O)O)c(O)c5-c5cc3ccc5O)[C@H](O)c3ccc(c(Cl)c3)O4)O[C@H](CO)[C@@H](O)[C@@H]2O)O[C@@H](C)[C@H]1O [Telavancin, telavancin]",MIC,[1],0.063 µg/mL
same,MIC,MSSA ATCC 29213,0.063 µg/mL
same,MIC:MBC,"[2]; S. epidermidis MRSE, MBC on one organism",1
same,MIC,"[2]; ATCC49134, S. epidermidis ATCC 49134, MSSE",0.12 µg/mL
same,MIC,"[2]; MRSE, S. epidermidis MMX 762, MRSE",0.12 µg/mL
same,MIC,"[2]; MRSE, S. epidermidis MMX 5145, MRSE",0.03 µg/mL
same,MIC,"[2]; MRSE, read-out: MIC (median), S. epidermidis MRSE, 2 isolates",0.12 µg/mL
same,MIC,"[2]; S. epidermidis MSSE, 1 isolate",0.12 µg/mL
same,MIC,"[3]; S. lugdunensis, 1 isolate",0.06 µg/mL
same,MIC,[3]; Staphylococcus lugdunensis,0.06 µg/mL
same,MIC:MBC,"Enterococcus faecalis; E. faecalis VSE, MBC on one organism",>8
same,MIC:MBC,Enterococcus faecalis; E. faecalis VanA VRE,8
same,MIC,"Enterococcus faecalis; E. faecalis VanA VRE, 1 isolate",1 µg/mL
same,MIC,Enterococcus faecalis; Enterococcus faecalis,0.25 µg/mL
same,MIC,"Enterococcus faecalis; Enterococcus faecalis, ATCC29212",0.12 µg/mL
same,MIC,"Enterococcus faecalis; Enterococcus faecalis, VRE",1 µg/mL
same,MIC,"Enterococcus faecalis; Enterococcus faecalis, read-out: MIC (median)",0.19 µg/mL
same,MIC:MBC,Enterococcus faecium; E. faecium VanA VRE,>4
same,MIC:MBC,Enterococcus faecium; E. faecium VanB VRE,>8
same,MIC,"Enterococcus faecium; E. faecium MMX 4204, VSE",0.06 µg/mL
same,MIC,"Enterococcus faecium; E. faecium VSE, 1 isolate",0.06 µg/mL
same,MIC,"Enterococcus faecium; VRE, E. faecium MMX 173, VanB VRE",0.06 µg/mL
same,MIC,"Enterococcus faecium; VRE, E. faecium MMX 851, VanA VRE",2 µg/mL
same,MIC,"Enterococcus faecium; VRE, E. faecium VanA VRE, 1 isolate",2 µg/mL
same,MIC,"Enterococcus faecium; VRE, E. faecium VanB VRE, 1 isolate",0.06 µg/mL
same,MIC,"Streptococcus pyogenes; S. pyogenes MMX 946, ermR",0.06 µg/mL
same,MIC:MBC,Streptococcus pyogenes; S. pyogenes ermR,1
same,MIC,"Streptococcus pyogenes; S. pyogenes ermR, 1 isolate",0.06 µg/mL
same,MIC,Streptococcus pyogenes; Streptococcus pyogenes,0.06 µg/mL
same,MIC,"Streptococcus pyogenes; Streptococcus pyogenes, ATCC19615",0.06 µg/mL
same,MIC,"Streptococcus pyogenes; Streptococcus pyogenes, read-out: MIC (median)",0.06 µg/mL
same,MIC,"Streptococcus agalactiae; S. agalactiae MMX 4115, ermR",0.06 µg/mL
same,MIC,"Streptococcus agalactiae; S. agalactiae ermR, 1 isolate",0.06 µg/mL
same,MIC:MBC,"Streptococcus agalactiae; S. agalactiae, MBC on one organism",>8
same,MIC,Streptococcus agalactiae; Streptococcus agalactiae,0.06 µg/mL
same,MIC,"Streptococcus agalactiae; Streptococcus agalactiae, ATCC13813",0.06 µg/mL
same,MIC,"Streptococcus agalactiae; Streptococcus agalactiae, read-out: MIC (median)",0.06 µg/mL
same,MIC:MBC,"[4]; S. dysgalactiae, MBC on one organism",4
same,MIC,[4]; S. dysgalactiae MMX 5121,0.12 µg/mL
same,MIC,[4]; S. dysgalactiae MMX 5123,0.25 µg/mL
same,MIC,[4]; S. dysgalactiae MMX 5124,0.03 µg/mL
same,MIC,"[4]; read-out: MIC (median), S. dysgalactiae, 3 isolates",0.12 µg/mL
same,MIC:MBC,Streptococcus anginosus; S. anginosus AGS,>8
same,MIC,Streptococcus anginosus,0.06 µg/mL
same,MIC,Streptococcus anginosus; ATCC33397,0.06 µg/mL
same,MIC,"[5]; S. constellatus AGS, 1 isolate",0.03 µg/mL
same,MIC,[5]; Streptococcus constellatus,0.03 µg/mL
same,MIC:MBC,"Streptococcus mitis; S. mitis MGS, MBC on one organism",1
same,MIC,Streptococcus mitis,0.03 µg/mL
same,MIC,Streptococcus mitis; ATCC49456,0.06 µg/mL
same,MIC,Streptococcus mitis; read-out: MIC (median),0.05 µg/mL
same,MIC,"Clostridioides difficile; ATCCBAA1805, C. difficile ATCC BAA-1805, ribo 027",0.12 µg/mL
same,MIC,"Clostridioides difficile; ATCCBAA1870, C. difficile ATCC BAA-1870, NAP1;ribo 027",0.12 µg/mL
same,MIC,"Clostridioides difficile; C. difficile ATTC 700057, toxAB-",0.12 µg/mL
same,MIC,"Clostridioides difficile; C. difficile NAP1;ribo 027, 1 isolate",0.12 µg/mL
same,MIC,"Clostridioides difficile; C. difficile ribo 027, 1 isolate",0.12 µg/mL
same,MIC,"Clostridioides difficile; C. difficile toxAB-, 1 isolate",0.12 µg/mL
same,MIC,Clostridium. perfringens,0.015 µg/mL
same,MIC,"Clostridium. perfringens; ATCC13124, read-out: MIC",0.015 µg/mL
same,MIC:MBC,"S. aureus; S. aureus MRSA, MBC median of n = 5",1
same,MIC:MBC,"S. aureus; S. aureus MSSA, MBC on one organism",1
same,MIC:MBC,"S. aureus; S. aureus VISA, MBC median of n = 2",1
same,MIC:MBC,"S. aureus; S. aureus hVISA, MBC on one organism",1
same,MIC,"S. aureus; ATCC13709 / MSSA, S. aureus ATCC 13709, MSSA",0.12 µg/mL
same,MIC,"S. aureus; ATCC29213 / MSSA, S. aureus ATCC 29213, MSSA",0.06 µg/mL
same,MIC,"S. aureus; ATCC43300 / MRSA, S. aureus ATCC 43300, MRSA",0.06 µg/mL
same,MIC,"S. aureus; ATCCBAA1556|MRSA|USA300, S. aureus ATCC BAA-1556, MRSA, USA300 (expanded panel)",0.06 µg/mL
same,MIC,"S. aureus; ATCCBAA1756|MRSA|NRS384|USA300, S. aureus NRS 384, ATCC BAA-1756, MRSA, USA300",0.06 µg/mL
same,MIC,"S. aureus; MRSA / NRS123 / USA400, S. aureus NRS123, MRSA, USA400",0.06 µg/mL
same,MIC,"S. aureus; MRSA / NRS725 / USA300, S. aureus NRS725, MRSA, USA300",0.06 µg/mL
same,MIC,"S. aureus; MRSA / USA300, S. aureus MMX 3982, MRSA, USA300",0.06 µg/mL
same,MIC,"S. aureus; MRSA, S. aureus MMX 5715, MRSA",0.06 µg/mL
same,MIC,"S. aureus; MRSA, S. aureus MMX 7899, MRSA",0.06 µg/mL
same,MIC,"S. aureus; MRSA, S. aureus MMX 7900, MRSA",0.06 µg/mL
same,MIC,"S. aureus; MRSA, S. aureus MMX 7901, MRSA",0.03 µg/mL
same,MIC,"S. aureus; MRSA, S. aureus MMX 7902, MRSA",0.06 µg/mL
same,MIC,"S. aureus; MRSA, S. aureus MMX 7903, MRSA",0.06 µg/mL
same,MIC,"S. aureus; MRSA, read-out: MIC (median), S. aureus MRSA, 12 isolates",0.06 µg/mL
same,MIC,"S. aureus; MSSA, S. aureus MMX 7907, MSSA",0.06 µg/mL
same,MIC,"S. aureus; MSSA, S. aureus MMX 7908, MSSA",0.12 µg/mL
same,MIC,"S. aureus; MSSA, read-out: MIC (median), S. aureus MSSA, 4 isolates",0.09 µg/mL
same,MIC,"S. aureus; NRS1 / VISA, S. aureus NRS1, VISA, Mu50",0.5 µg/mL
same,MIC,"S. aureus; NRS2, S. aureus NRS2, hVISA;Mu3",0.12 µg/mL
same,MIC,"S. aureus; NRS4 / VISA, S. aureus NRS4, VISA",0.25 µg/mL
same,MIC,"S. aureus; NRS13 / VISA, S. aureus NRS13, VISA",0.12 µg/mL
same,MIC,"S. aureus; NRS22 / VISA, S. aureus NRS22, VISA",0.5 µg/mL
same,MIC,"S. aureus; NRS23, S. aureus NRS23, hVISA",0.25 µg/mL
same,MIC,"S. aureus; NRS52 / VISA, S. aureus NRS52, VISA",0.25 µg/mL
same,MIC,"S. aureus; VISA, read-out: MIC (median), S. aureus VISA, 5 isolates",0.25 µg/mL
same,MIC,"S. aureus; read-out: MIC (median), S. aureus hVISA, 2 isolates",0.19 µg/mL
same,Reduction in MRSA biofilm titer versus control,[6]; doses 1 to 10 μg/ml,approximately 2 log10 CFU/ml
same,Concentrations with statistically significant reduction versus control biofilm,"[6]; two-way ANOVA, Bonferroni",≥ 10 µg/mL
